Key:
BRD4-BD1 = target: T1, BRD4-BD1 (Homo sapiens, UniProt O60885); experiment: BRD4 AlphaScreen assay, BD1; type: binding; conditions: H4Ac4 peptide, 3.8 nM BRD4-BD1, read-out: BRD4 BD-1 enzyme IC50
T1 construct: 3.8 nM (BRD4-BD1, BPS Bioscience #31040); purchased BPS Bioscience 31040
Procedure: (§1) BRD4-BD1 and BRD4-BD2 assays were conducted in white 384-well polystyrene plate in a final volume of 20 μL for BD1 and 40 μL for BD2. Inhibitors were first serially diluted in DMSO and added to the plate wells before the addition of other reaction components. The final concentration of DMSO in the assay was 1.25% (BD1) and 0.83% (BD2). The assays were carried out at room temperature for 75 min. in the assay buffer (50 mM HEPES, pH 7.4, 100 mM NaCl, 0.05% CHAPS, 0.01% BSA), containing 50 nM Biotin-labeled tetra-acetylated histone H4 peptide (H4Ac4), 3.8 nM (BRD4-BD1, BPS Bioscience #31040) or 20 nM (BRD4-BD2, BPS Bioscience #31041). The reaction followed by the addition of 20 μL of assay buffer supplemented with Streptavidin donor beads (PerkinElmer 6760002) and GSH Acceptor beads (PerkinElmer-AL 109C) at 4 μg/mL under reduced light. After plate sealing, the plate was incubated in the dark at room temperature for 75 min. before reading on a PHERAstar FS plate reader (BMG Labtech). IC50 determination was performed by fitting the curve of percent control activity versus the log of the inhibitor concentration using the GraphPad Prism 5.0 software. IC50 data for the Examples is presented in Table 1 as determined by Assay A1.

BRD4-BD2 = target: T2, BRD4-BD2 (Homo sapiens, UniProt O60885); experiment: BRD4 AlphaScreen assay, BD2; type: binding; conditions: H4Ac4 peptide, 20 nM BRD4-BD2, read-out: BRD4 BD-2 enzyme IC50
T2 construct: 20 nM (BRD4-BD2, BPS Bioscience #31041); purchased BPS Bioscience 31041
Procedure: as §1

Row | IC50 (BRD4-BD1) | IC50 (BRD4-BD2) | SMILES
1 | 1 to 10 µM | 0.1 to 1 µM | Cn1cc(-c2c(Oc3ccc(F)cc3F)ccc3[nH]c(=O)[nH]c23)c2cc[nH]c2c1=O [Example 1, 5-(2,4-Difluorophenoxy)-4-(6-methyl-7-oxo-6,7-dihydro-H-pyrrolo[2,3-c]pyridin-4-yl)-1,3-dihydro-2H-benzimidazol-2-one]
2 | 1 to 10 µM | ≤ 0.1 µM | Cn1cc(-c2c(Oc3ccc(F)cc3F)ccc3[nH]cnc23)c2cc[nH]c2c1=O [Example 2, 4-[5-(2,4-Difluorophenoxy)-1H-benzimidazol-4-yl]-6-methyl-1,6-dihydro-7H-pyrrolo[2,3-c]pyridin-7-one]
